Data set [1] is described as follows: In vitro human liver microsome stability experiment. Format: in vitro ADME. Conditions: human liver microsomes. Here is the method:
Eight 96-well incubation plates were prepared, named [NT], Blank60, and NCF60, respectively. […] No compound to be tested or control compound was added to the Blank60 plate and samples were taken after 60 minutes of incubation. The NCF60 plate, in which a potassium phosphate buffer was used instead of an NADPH regeneration system solution (Sigma, N0505), was incubated for 60 minutes. […] Only the working solution of microsomes was added to the Blank60 plate, and the incubation plates Blank60, T5, T15, T30, T45, and T60 except TO and NCF60 were then placed in a water bath at 37° C. for pre-incubation for about 10 minutes. To the TO plate sample, 600 μL of a stop solution (acetonitrile:methanol (95:5, v/v) solution containing 100 ng/mL tolbutamide (Sigma, T0891)) was added first, and then an NADPH regeneration system working solution was added. 98 μL of a potassium phosphate buffer was added to each well of the NCF60 plate and incubated for 60 minutes. After the pre-incubation in the incubation plates Blank60, T5, T15, T30, T45, and T60 was complete, 98 μL of the NADPH regeneration system working solution was added to each sample well to initiate the reaction. After an appropriate incubation time (such as 5, 15, 30, 45, and 60 minutes), 600 μL of the stop solution was added to each sample well and control sample well in the Blank60, […] the reaction. All the sample plates were shaken evenly and centrifuged at 3220×g for 20 minutes. 200 μL of each test sample supernatant was taken and diluted into 200 μL of an aqueous solution containing 0.3% formic acid for LC-MS/MS analysis, and 100 μL of the control sample supernatant was taken and diluted into 300 μL of pure water for LC-MS/MS analysis. Calculations were carried out according to the following formulas: […]
(In general: Liver microsomes are a subcellular fraction often used to study metabolism.)

Data set [2] concerns the target Ba/F3 (KRAS-G12C-Q99L) cells (Homo sapiens, UniProt P01116, G12C/Q99L, cells depend on it). The data set is described as follows: Proliferation experiment of Ba/F3 (KRAS-G12C-Q99L) cells. Format: cell-based. As to conditions: 72 hours, Cell Titer-Glo, read-out: Test Example 6 IC50. Here is the method: Engineered cell strain Ba/F3 (KRAS-G12C-Q99L) was a cell strain constructed by the inventors according to the methods described in Warmuth M. et al, Curr Opin Oncol. […] The cells were grown at 37° C. in a humidified incubator with 5% CO2.
(§1) According to the solution described in Cell Titer-Glo Luminescent cell Viability Assay (Promega catalog number #G7570) of Promega Corporation, the number of living cells in the culture was detected. 90 μL of cells (3,000 cells/well) were cultured in a growth medium in a Corning black transparent bottom 96-well plate and were cultured overnight in a 5% CO2 humidified incubator at 37° C. The compound diluted serially in 100% DMSO was added to the cells by a pipette, and the cells were cultured for another 72 hours. 100 μL of the well-mixed Cell Titer-Glo reagent was added to the cells in the 96-well culture plate to lyse the cells and gently mixed. Subsequently, […] was detected on an Envision microplate detector, and the data of each compound was obtained. Finally, the data was input into a suitable software package (such as Prism) for curve fitting analysis.
On the technique in general: In ATP-based viability assays light output follows the ATP content of the culture.

The subject of data set [3] is NCI-H23 cells (KRAS G12C mutant cell line). The data set is described as follows: Proliferation experiment of NCI-H23 cells (Cell Titer-Glo). In kind it is cell-based. As to conditions: Homo sapiens, 72 hours, read-out: Test Example 2 IC50. Here is the method:
Human lung cancer cell line NCI-H23 (ATCC, CRL-5800) was a KRAS G12C mutant cell line.
as §1, with “(8,000” for “(3,000”

The test system of data set [4] is NCI-H358 cells (KRAS G12C mutant cell line). Briefly: Proliferation experiment of NCI-H358 cells (Cell Titer-Glo). Format: cell-based. Conditions: Homo sapiens, 72 hours, read-out: Test Example 1 IC50. Here is the method:
as §1, with “(8,000” for “(3,000”

In data set [5] the target is Ba/F3 (KRAS-G12C-R68S) cells (Homo sapiens, UniProt P01116, G12C/R68S, cells depend on it). The data set is described as follows: Proliferation experiment of Ba/F3 (KRAS-G12C-R68S) cells. Format: cell-based. Conditions: 72 hours, Cell Titer-Glo, read-out: Test Example 5 IC50. Here is the method: Engineered cell strain Ba/F3 (KRAS-G12C-R68S) was a cell strain constructed by the inventors according to the methods described in Warmuth M. et al, Curr Opin Oncol. […] The cells were grown at 37° C. in a humidified incubator with 5% CO2.
as §1

The target in data set [6] is Ba/F3 (KRAS-G12C-Y96C) cells (Homo sapiens, UniProt P01116, G12C/Y96C, cells depend on it). The data set is described as follows: Proliferation experiment of Ba/F3 (KRAS-G12C-Y96C) cells. As to conditions: 72 hours, Cell Titer-Glo, read-out: Test Example 3 IC50. Format: cell-based. As for the experimental part: Engineered cell strain Ba/F3 (KRAS-G12C-Y96C) was a cell strain constructed by the inventors according to the methods described in Warmuth M. et al, Curr Opin Oncol. […] The cells were grown at 37° C. in a humidified incubator with […].
as §1, with “[…]” for “5%”

Data set [7] has as its target Ba/F3 (KRAS-G12C-H95Q) cells (Homo sapiens, UniProt P01116, G12C/H95Q, cells depend on it). Briefly: Proliferation experiment of Ba/F3 (KRAS-G12C-H95Q) cells. Format: cell-based. Conditions: 72 hours, Cell Titer-Glo, read-out: Test Example 4 IC50. Here is the method: Engineered cell strain Ba/F3 (KRAS-G12C-H95Q) was a cell strain constructed by the inventors according to the methods described in Warmuth M. et al, Curr Opin Oncol. […] The cells were grown at 37° C. in a humidified incubator with […].
as §1

This note sets out measurements from patent US20250154156A1, “QUINAZOLINE DERIVATIVE AS KRAS G12C MUTATION INHIBITOR” (Shenzhen Forward Pharmaceuticals Co., Limited, priority 2022, published 2025).

The structures appear in SMILES notation. pIC50: −log10 of the molar value.

For orientation: half-life means the time in which the quantity being followed falls by half. A high value points to slow loss. Broadly, the CLint scaled is the rate of metabolic loss divided by the concentration. High values mean rapid turnover, low ones slow turnover. In general, pIC50 refers to the IC50 on a negative log10 scale, so that one unit is a factor of ten.

Chain of Ba/F3 (KRAS-G12C-Y96C) cells (P01116 whole entry G12C/Y96C): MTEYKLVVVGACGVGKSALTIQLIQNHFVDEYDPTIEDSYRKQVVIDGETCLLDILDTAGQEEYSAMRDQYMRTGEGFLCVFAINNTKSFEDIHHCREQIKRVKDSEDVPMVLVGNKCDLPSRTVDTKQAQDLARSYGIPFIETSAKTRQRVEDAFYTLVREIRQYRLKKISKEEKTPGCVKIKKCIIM
Chain of Ba/F3 (KRAS-G12C-R68S) cells (P01116 whole entry G12C/R68S): as the sequence (P01116 whole entry G12C/Y96C) above, with R68S, C96Y counted along it
Chain of Ba/F3 (KRAS-G12C-H95Q) cells (P01116 whole entry G12C/H95Q): as the sequence (P01116 whole entry G12C/Y96C) above, with H95Q, C96Y counted along it
Chain of Ba/F3 (KRAS-G12C-Q99L) cells (P01116 whole entry G12C/Q99L): as the sequence (P01116 whole entry G12C/Y96C) above, with C96Y, Q99L counted along it

Regarding `C#Cc1c(F)ccc2cc(O)cc(-c3c(F)cc4c(N5CCN(C(=O)C(=C)F)[C@@H](CC#N)C5)nc(OC[C@@]56CCCN5C[C@H](F)C6)nc4c3F)c12` [Compound 24A, 2-((2S)-4-(7-(8-ethynyl-7-fluoro-3-hydroxynaphth-1-yl)-6,8-difluoro-2-(((2R,7aS)-2-fluorotetrahydro-1H-pyrrolizin-7a(5H)-yl)methoxy)quinazolin-4-yl)-1-(2-fluoroacryloyl)piperazin-2-yl)acetonitrile], in data set [1] (1 mg/mL microsome protein, NADPH, 37° C.), the half-life stood at 17.1 min. Besides, the microsomal CLint in data set [1] (1 mg/mL microsome protein, NADPH, 37° C., read-out: CLint(mic)) amounted to 81.3 µL/min/mg. In data set [1] (scaled to liver), the CLint scaled was found to be 73.2 mL/min/kg. Also, the GI50 was determined as 4 nM in data set [2], 5.5 nM in data set [5], 4 nM in data set [6] and 7.6 nM in data set [7]. The pIC50 was 9.28 in data set [3] and 9.60 in data set [4].
